Data as given in ChEMBL document CHEMBL1201862, “PubChem BioAssay data set” (2004).
Activity calls are given as the source filed them.

Tests used:
[1] = biological target: T1, Neuropeptide Y receptor type 2 (Homo sapiens, UniProt P49146); assay type: functional, cell-based;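 as to IC50: HEK293 cells expressing the receptor and a CNG channel; stimulus was NPY near EC95 followed by isoproterenol to raise cAMP; antagonist potency measured as restoring cAMP signal that NPY suppresses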
[2] = biological target: T2, Neuropeptide Y receptor type 1 (Homo sapiens, UniProt P25929); assay type: functional;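 as to IC50: HEK293 cells with a CNG channel challenged with NPY then isoproterenol; potency as antagonist that reverses NPY suppression of cAMP signal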
[3] = NIH3T3 cell viability loss – ATP luminescence, mouse fibroblasts, counter-screen, dose response (AID 2010); assay type: functional, cell-based;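 also: cells exposed to compound for about 90 hours before reading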
Mucolipin-3 = Mucolipin-3 (Homo sapiens, UniProt Q8TDD5); experiment: Dose response cell-based high-throughput screening assay for agonists of the transient receptor potential channel ML3 (TRPML3). [Related pubchem assays: 1526, 1424, 1448 ]; assay type: functional
[4] = Trypanosoma cruzi growth suppression in host cells – NIH3T3 host cells, beta-gal luminescence, confirmation (AID 2044); assay type: functional, cell-based;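 also: intracellular parasites grown in NIH/3T3 mouse fibroblasts as host cells; luminescent beta-galactosidase reporter signal from transgenic T. cruzi replicating inside host cells; inhibitors lower the luminescence signal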
Ion channel NompC = Ion channel NompC (Danio rerio, UniProt Q7T1G6); experiment: Fluorescence counterscreen assay for TRPML3 agonists: dose response cell-based high-throughput screening assay to identify agonists of the transient receptor potential channel N1 (TRPN1). [Related pubchem assays: 1526, 1424, 1448 ]; assay type: functional
[5] = biological target: T3, Heat shock factor protein 1 (Mus musculus, UniProt P38532); experiment: decrease of HSF1-responsive luciferase luminescence – cell-based, NIH3T3, dose retest, confirmation (AID 2382); assay type: functional;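 also: NIH3T3 fibroblasts with HSF1-driven luciferase reporter stressed by proteasome inhibitor MG132; luminescence from HSF1-driven luciferase expression after 8 hours of MG132 stress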
T3 sequence (P38532 whole entry): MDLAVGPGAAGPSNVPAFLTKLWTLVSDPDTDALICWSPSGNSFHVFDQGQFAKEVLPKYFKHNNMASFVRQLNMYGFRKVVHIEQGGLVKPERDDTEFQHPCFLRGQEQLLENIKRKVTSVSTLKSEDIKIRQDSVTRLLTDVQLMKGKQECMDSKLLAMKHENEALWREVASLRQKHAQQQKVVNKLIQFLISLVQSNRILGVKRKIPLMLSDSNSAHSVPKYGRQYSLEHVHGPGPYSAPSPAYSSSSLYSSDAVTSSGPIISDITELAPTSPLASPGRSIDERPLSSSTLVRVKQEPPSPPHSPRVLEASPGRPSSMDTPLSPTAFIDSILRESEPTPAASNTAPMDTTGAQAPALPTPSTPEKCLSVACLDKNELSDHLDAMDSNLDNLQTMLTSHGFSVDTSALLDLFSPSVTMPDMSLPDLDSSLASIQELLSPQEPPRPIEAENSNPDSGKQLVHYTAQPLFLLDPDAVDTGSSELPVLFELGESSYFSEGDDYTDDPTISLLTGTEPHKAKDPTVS

[6] = biological target: T1, Neuropeptide Y receptor type 2; experiment: Fluorescence-based cell-based high-throughput dose response assay for agonists of NPY-Y2. [Related pubchem assays: 1703 (Screening assay (CNGC inhibitors).), 1359 (Screening assay (NPY-Y2 potentiators or agonists).), 1304 (Screening assay (NPY-Y1 potentiators or agonists).), 1710 (Screening assay (NPY-Y2 agonists).), 1791 (Summary AID.)]; assay type: functional
HEK293 = experiment: Fluorescence-based counterscreen for potentiators or agonists of NPY-Y2: cell-based high-throughput dose response assay to identify inhibitors of cyclic nucleotide gated ion channel (CNGC) activity. In this assay, the parental HEK293 cell line transfected with a cyclic-nucleotide gated ion channel (CNGC)-based cAMP sensor is used to measure inhibition of isoproterenol-induced CNGC activity by test compound.; assay type: functional; conditions: Homo sapiens;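 also: stimulus is 1 µM isoproterenol at EC100 plus PDE inhibitor Ro 20-1724 at 25 µM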
[7] = biological target: T2, Neuropeptide Y receptor type 1; experiment: Fluorescence-based counterscreen for agonists of NPY-Y2: cell-based high-throughput dose response assay for agonists of NPY-Y1.; assay type: functional
[8] = biological target: G2/mitotic-specific cyclin-B1 (Homo sapiens, UniProt P14635); experiment: Counterscreen assay for inhibitors of Wee1 degradation: dose response cell-based assay to identify inhibitors of cyclin B degradation. [Related pubchem assays: 1410, 1321 ]; assay type: functional
BJ [9] = experiment: BJ-TERT-LT-ST fibroblast viability loss – cell-based, RAS-independent, luminescence, dose response (AID 1935); assay type: functional; conditions: Homo sapiens;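 also: BJ fibroblasts immortalized with TERT plus LT and ST oncogenes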
[10] = biological target: E3 ubiquitin-protein ligase Mdm2 (Homo sapiens, UniProt Q00987); experiment: MDM2-luc reporter signal enhancers, multi-concentration potency testing, MDM2 ubiquitin-protein ligase inhibitor program, whole-cell format, luminescence detection, 384-well microplate (AID 1394); assay type: functional;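 also: MDM2 E3 inhibitors raise luminescence so EC50 is for signal enhancement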
BJ [11] = experiment: cells; assay type: functional, cell-based; conditions: Homo sapiens
Wee1-like protein kinase = Wee1-like protein kinase (Homo sapiens, UniProt P30291); experiment: Dose Response Cell-based Assay for Inhibitors of Wee1 Degradation. [Related pubchem assays: 1410, 1321 ]; assay type: functional
BJ [12] = experiment: BJ-TERT fibroblast viability loss – cell-based, RAS-independent, luminescence, dose response (AID 1933); assay type: functional; conditions: Homo sapiens
HeLa = experiment: Cytotoxicity counterscreen assay for transcriptional activators of heat shock protein 70 (Hsp70). [Related pubchem assays: 1203, 1252 ]; assay type: functional; conditions: Homo sapiens;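 also: cells exposed to compound for 16 hours before readout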
[13] = DRD fibroblast viability loss – cell-based, non-viral oncogenic, luminescence, dose response (AID 1934); assay type: functional; conditions: Homo sapiens
[14] = biological target: Epstein-Barr nuclear antigen 1 (Epstein-Barr virus (strain B95-8) (HHV-4) (Human herpesvirus 4), UniProt P03211); experiment: inhibition of EBV nuclear antigen 1 DNA binding – biochemical, fluorescence polarization, 1536-well, dose response (AID 2381); design: species or system human gammaherpesvirus 4;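 also: fluorescence polarization of a Cy5 DNA probe bound by EBNA-1 protein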
[15] = biological target: Lytic switch protein BZLF1 (Epstein-Barr virus (strain B95-8) (HHV-4) (Human herpesvirus 4), UniProt P03206); experiment: inhibition of BZLF1 ZTA DNA binding – biochemical, fluorescence polarization, Epstein-Barr virus, 1536-well, counter-screen for EBNA-1 inhibitor project, dose response (AID 2377); design: species or system human gammaherpesvirus 4;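 also: fluorescence polarization of Cy5-labelled ZRE DNA probe bound by purified Zta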
[16] = biological target: T4, Heat shock 70 kDa protein 1A (Homo sapiens, UniProt P0DMV8); experiment: small molecules displacing fluorescent ligand from Hsp70 – biochemical, fluorescence polarization, primary screen (AID 583)
[17] = biological target: T4, Heat shock 70 kDa protein 1A; experiment: small-molecule inhibition of Hsp70 – biochemical, TR-FRET (AID 786)
Bcl-2-like protein 10 = Bcl-2-like protein 10 (Homo sapiens, UniProt Q9HD36); experiment: Concentration-response of Bcl-B inhibitors by biochemical FP with TR3 (AID 1243); assay type: functional

T2 sequence (P25929 whole entry): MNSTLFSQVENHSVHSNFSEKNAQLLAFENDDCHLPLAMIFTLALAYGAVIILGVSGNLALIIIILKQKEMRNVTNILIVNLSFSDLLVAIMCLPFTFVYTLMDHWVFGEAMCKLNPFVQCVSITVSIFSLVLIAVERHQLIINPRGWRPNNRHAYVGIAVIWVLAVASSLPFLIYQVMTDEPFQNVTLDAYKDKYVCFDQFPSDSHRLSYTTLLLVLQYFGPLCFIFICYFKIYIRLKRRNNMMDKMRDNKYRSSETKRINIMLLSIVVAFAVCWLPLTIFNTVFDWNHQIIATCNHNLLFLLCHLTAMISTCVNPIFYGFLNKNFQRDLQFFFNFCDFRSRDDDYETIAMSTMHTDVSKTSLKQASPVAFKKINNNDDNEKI
T1 sequence (P49146 whole entry): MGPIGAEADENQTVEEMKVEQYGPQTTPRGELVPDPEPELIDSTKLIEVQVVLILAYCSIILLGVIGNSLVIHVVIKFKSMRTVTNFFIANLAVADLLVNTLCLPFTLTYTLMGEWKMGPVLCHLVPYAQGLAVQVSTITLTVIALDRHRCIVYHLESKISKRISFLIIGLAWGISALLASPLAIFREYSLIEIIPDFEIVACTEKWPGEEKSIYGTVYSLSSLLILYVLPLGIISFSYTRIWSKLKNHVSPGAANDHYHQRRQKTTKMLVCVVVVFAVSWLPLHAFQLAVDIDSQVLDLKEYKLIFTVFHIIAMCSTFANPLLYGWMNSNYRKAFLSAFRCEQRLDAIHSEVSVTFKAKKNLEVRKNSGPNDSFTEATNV
T4 sequence (P0DMV8 whole entry): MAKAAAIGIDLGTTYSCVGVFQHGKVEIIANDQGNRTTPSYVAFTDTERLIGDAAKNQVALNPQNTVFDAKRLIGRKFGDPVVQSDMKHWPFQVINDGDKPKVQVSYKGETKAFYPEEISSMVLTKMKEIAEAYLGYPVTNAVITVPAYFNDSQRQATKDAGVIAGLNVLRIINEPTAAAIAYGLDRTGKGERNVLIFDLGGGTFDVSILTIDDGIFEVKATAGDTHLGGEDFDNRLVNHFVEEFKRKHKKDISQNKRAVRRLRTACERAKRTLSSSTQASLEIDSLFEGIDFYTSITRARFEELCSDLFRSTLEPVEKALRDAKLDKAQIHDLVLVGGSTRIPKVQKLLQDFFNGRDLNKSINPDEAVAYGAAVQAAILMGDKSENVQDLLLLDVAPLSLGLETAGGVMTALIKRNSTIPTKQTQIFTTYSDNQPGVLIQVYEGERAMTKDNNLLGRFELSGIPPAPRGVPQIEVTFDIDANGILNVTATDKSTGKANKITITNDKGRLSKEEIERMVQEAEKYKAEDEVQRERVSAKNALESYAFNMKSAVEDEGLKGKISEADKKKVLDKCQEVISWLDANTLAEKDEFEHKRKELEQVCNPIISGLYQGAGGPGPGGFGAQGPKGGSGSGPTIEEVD
Chain of Ion channel NompC (Q7T1G6 whole entry): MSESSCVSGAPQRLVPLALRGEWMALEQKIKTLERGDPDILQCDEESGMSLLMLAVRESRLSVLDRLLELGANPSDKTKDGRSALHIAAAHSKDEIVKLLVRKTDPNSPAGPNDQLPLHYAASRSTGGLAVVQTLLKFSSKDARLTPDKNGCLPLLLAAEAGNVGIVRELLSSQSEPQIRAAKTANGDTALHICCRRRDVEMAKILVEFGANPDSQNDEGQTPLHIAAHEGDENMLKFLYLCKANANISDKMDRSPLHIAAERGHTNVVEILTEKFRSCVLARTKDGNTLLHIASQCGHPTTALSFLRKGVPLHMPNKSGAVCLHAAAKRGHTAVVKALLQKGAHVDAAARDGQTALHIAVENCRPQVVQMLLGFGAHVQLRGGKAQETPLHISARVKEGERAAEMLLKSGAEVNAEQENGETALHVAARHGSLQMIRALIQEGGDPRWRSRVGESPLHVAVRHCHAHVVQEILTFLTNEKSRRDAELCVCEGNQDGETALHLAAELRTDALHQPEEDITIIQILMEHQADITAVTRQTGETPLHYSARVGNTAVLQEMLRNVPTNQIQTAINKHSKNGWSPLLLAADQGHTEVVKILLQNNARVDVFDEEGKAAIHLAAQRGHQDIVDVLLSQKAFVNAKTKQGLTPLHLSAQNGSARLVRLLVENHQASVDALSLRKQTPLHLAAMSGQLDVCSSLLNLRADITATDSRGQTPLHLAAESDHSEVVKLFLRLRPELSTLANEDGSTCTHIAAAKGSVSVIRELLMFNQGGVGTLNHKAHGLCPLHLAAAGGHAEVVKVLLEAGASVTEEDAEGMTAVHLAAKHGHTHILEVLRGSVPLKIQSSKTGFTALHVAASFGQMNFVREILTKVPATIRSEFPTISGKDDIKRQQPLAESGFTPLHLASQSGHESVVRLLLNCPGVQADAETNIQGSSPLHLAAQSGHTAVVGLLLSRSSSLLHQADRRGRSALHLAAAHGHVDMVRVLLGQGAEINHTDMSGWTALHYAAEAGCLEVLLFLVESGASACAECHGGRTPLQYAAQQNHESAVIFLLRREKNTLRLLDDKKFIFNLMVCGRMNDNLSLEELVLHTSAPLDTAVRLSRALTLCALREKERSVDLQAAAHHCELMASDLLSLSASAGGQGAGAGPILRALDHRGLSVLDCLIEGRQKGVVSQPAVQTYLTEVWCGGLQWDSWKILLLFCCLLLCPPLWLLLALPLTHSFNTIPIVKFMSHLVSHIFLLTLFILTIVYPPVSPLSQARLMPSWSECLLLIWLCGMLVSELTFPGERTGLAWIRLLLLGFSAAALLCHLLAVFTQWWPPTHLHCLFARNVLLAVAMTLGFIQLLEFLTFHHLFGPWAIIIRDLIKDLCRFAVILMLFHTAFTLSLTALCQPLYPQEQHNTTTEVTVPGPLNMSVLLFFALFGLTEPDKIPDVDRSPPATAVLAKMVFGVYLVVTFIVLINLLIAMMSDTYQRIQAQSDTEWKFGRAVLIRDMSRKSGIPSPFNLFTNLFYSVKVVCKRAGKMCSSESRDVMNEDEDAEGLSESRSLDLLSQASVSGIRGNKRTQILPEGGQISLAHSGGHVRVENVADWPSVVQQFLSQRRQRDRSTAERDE
Chain of Epstein-Barr nuclear antigen 1 (P03211 whole entry): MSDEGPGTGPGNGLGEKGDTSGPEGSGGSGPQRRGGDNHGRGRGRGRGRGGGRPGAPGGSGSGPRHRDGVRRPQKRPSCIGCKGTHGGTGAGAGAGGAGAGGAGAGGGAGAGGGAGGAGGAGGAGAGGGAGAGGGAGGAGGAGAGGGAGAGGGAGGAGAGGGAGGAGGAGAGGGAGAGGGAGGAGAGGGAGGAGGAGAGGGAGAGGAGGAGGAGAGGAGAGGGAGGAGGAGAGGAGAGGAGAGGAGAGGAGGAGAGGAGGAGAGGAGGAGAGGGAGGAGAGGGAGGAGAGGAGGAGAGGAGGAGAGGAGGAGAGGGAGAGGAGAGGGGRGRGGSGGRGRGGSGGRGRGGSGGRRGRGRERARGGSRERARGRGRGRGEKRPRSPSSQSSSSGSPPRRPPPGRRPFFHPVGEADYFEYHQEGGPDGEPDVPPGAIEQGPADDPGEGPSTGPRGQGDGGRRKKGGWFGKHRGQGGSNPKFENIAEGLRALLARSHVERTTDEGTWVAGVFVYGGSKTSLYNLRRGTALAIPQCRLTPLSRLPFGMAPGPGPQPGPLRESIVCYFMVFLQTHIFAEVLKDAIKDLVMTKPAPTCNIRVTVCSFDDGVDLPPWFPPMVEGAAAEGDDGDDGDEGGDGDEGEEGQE
Chain of Mucolipin-3 (Q8TDD5 whole entry): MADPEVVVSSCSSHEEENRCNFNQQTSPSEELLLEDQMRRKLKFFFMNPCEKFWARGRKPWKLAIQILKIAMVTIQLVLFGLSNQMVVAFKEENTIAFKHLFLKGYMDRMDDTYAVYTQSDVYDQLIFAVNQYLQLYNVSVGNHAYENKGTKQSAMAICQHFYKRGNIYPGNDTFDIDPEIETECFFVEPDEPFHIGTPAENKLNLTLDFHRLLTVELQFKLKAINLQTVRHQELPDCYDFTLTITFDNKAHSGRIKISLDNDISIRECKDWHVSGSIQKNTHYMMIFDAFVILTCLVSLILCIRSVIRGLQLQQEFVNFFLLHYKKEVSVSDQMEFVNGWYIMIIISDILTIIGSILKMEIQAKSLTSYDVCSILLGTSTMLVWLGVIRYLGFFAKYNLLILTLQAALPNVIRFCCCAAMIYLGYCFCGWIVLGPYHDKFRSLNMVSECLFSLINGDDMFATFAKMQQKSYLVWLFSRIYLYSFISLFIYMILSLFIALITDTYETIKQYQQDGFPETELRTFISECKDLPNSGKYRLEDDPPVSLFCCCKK
Chain of G2/mitotic-specific cyclin-B1 (P14635 whole entry): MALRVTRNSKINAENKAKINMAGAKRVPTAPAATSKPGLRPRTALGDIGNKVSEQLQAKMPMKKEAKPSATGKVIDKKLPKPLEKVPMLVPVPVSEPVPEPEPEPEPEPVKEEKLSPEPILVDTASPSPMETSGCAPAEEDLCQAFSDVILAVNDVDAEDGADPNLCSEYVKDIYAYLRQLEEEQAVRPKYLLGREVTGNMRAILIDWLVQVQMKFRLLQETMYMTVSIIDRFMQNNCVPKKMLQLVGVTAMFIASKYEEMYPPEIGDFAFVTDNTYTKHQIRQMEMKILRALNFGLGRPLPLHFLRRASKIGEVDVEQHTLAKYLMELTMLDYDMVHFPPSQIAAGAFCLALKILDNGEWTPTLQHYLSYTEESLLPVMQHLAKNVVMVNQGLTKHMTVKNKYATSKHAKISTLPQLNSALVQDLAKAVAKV
Chain of Lytic switch protein BZLF1 (P03206 whole entry): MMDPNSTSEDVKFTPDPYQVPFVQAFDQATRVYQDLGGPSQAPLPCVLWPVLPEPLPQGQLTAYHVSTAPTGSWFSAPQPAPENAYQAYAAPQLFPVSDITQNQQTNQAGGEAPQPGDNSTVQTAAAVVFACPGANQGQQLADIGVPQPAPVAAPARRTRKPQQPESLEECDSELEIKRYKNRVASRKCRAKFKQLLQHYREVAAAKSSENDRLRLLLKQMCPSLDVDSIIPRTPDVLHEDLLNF

Question: For `N#Cc1nc(COc2ccc(Cl)cc2)oc1N1CCCCCC1`, which IC50 [1] is on record?
Answer: 16.1 µM (not active)

Question: And the IC50 [2]?
Answer: 6.66 µM (active)

Question: For `CCN(CC)c1ccc(NC(=O)COc2ccc(N(C)S(=O)(=O)c3cccs3)cc2)cc1`, which EC50 [3] is on record?
Answer: > 30 µM (not active)

Question: And the EC50 (Mucolipin-3)?
Answer: > 29.9 µM (not active)

Question: And the EC50 [4]?
Answer: 2.28 µM (active)

Question: What about the EC50 (Ion channel NompC) of the same compound?
Answer: > 29.9 µM (not active)

Question: For `COc1ccc2c(c1)c(CC(=O)Nc1nnc(C3CC3)s1)c(C)n2C(=O)c1ccc(Cl)cc1`, which EC50 [3] is on record?
Answer: 5.09 µM (active)

Question: What about the EC50 [4] of the same compound?
Answer: 2.28 µM (active)

Question: And the EC50 [5]?
Answer: 21.6 µM (active)

Question: What about the EC50 [6] of the same compound?
Answer: > 35.4 µM (not active)

Question: What about the EC50 (HEK293) of the same compound?
Answer: > 35.4 µM (not active)

Question: What about the EC50 [7] of the same compound?
Answer: > 35.4 µM (not active)

Question: Which EC50 [8] does the source give for `C=CS(=O)(=O)c1ccc(Oc2ccc(S(=O)(=O)C=C)cc2)cc1` here?
Answer: > 5.53 µM (active)

Question: And the EC50 (BJ [9])?
Answer: > 150 µM (inconclusive)

Question: And the EC50 [10]?
Answer: 2.64 µM (active)

Question: What about the EC50 (BJ [11]) of the same compound?
Answer: > 150 µM (inconclusive)

Question: And the EC50 (Wee1-like protein kinase)?
Answer: > 49.7 µM (not active)

Question: What about the EC50 (BJ [12]) of the same compound?
Answer: 2.24 µM (inconclusive)

Question: And the CC50 (HeLa)?
Answer: > 1.22 µM (not active)

Question: And the EC50 [13]?
Answer: 3.83 µM (active)

Question: Which results are given for `COC(=O)c1cccc(S(=O)(=O)N2CCC(NC(=O)Nc3cccc(F)c3)CC2)c1`?
Answer: IC50 [14]: 6.09 µM (active); IC50 [15]: > 111 µM (not active)

Question: Which IC50 [16] does the source give for `Cc1ccc(OCCN2CCN(C(=O)CCC(=O)Nc3nnc(C)s3)CC2)cc1` here?
Answer: > 100 µM (not active)

Question: What about the IC50 [17] of the same compound?
Answer: > 100 µM (not active)

Question: With `O=C(O)c1ccc2c(c1)C1C=CCC1C(c1cccc([N+](=O)[O-])c1)N2` (stereo not given) as the compound, how does the EC50 (Bcl-2-like protein 10) read?
Answer: 1.75 µM (active)
